The values that follow come from patent publication US20100267742A1, “COMBINATION TARGETED THERAPY FOR LUNG CANCER” (RUSH UNIVERSITY MEDICAL CENTER, priority 2009, published 2010).

What all share (type): cell-based, human
In one assay the test system is Calu3 cells. The assay can be described thus: Cell proliferation / cell survival (viability) assay, Calcein-AM, 72 hours. To be noted: for cell survival / cell viability / sensitivity: Calu3, 72 hours in culture, serum-starved; for effect on cell number (3-factor ANOVA): Calu3 cell line, no EGFR mutation, alone or in combination. How it is done:
(§1) Lysates were prepared for immunoprecipitation and Western blotting from serum-starved Calu3 and H1975 cell lines after incubation with kinase inhibitors, including enzastaurin for PKCβ, and SU11274 for c-met. Specific site directed anti-phospho-antibodies were used to probe Western blots to determine the effect of respective inhibitors on downstream kinase activation. Proliferation and cell viability assays were performed with 10,000 cells seeded into 96-well plates and incubated with inhibitors in serum-starved cultures for 72 hours. Cell viability was determined by the addition of Calcein-AM (calcein-acetoxymethyl ester, diacetate) for the final 2 hours and plates were read at 515 nm. Lung carcinoma cell lines: H1975 and Calu-3 were cultured following ATCC guidelines. Cells are removed from flasks with cell dissociation buffer in PBS.

Another assay relates to H1975 cells. The assay is described as above. The following applies: H1975 cell line, two EGFR mutations, alone or in combination. The method, then: as §1
Assay [1] concerns kinase and receptor phosphorylation in Calu3 cells. The assay can be described thus: Western blot with anti-phospho antibodies on lysates of serum-starved cells. The following applies: for Akt (ser473) phosphorylation / EGFR (Y1068) phosphorylation: low doses alone versus combination. How it is done: (§2) Lysates were prepared for immunoprecipitation and Western blotting from serum-starved Calu3 and H1975 cell lines after incubation with kinase inhibitors, including enzastaurin for PKCβ, and SU11274 for c-met. Specific site directed anti-phospho-antibodies were used to probe Western blots to determine the effect of respective inhibitors on downstream kinase activation. Proliferation and cell viability assays were performed with 10,000 cells seeded into 96-well plates and incubated with inhibitors in serum-starved cultures for 72 hours. Cell viability was determined by the addition of Calcein-AM (calcein-acetoxymethyl ester, diacetate) for the final 2 hours and plates were read at 515 nm. Antibodies: Anti-EGFR, antiphospho-EGFR (Tyr845), anti-phospho-EGFR (Tyr1068), anti-phospho-Akt (Ser473), anti phospho-Erk1,2 (Thr202/Tyr204), anti-phospho-PKCα,β) were purchased from Cell Signaling. Cell cultures: Cells were serum starved for 18-24 hours prior to incubation with kinase inhibitors. Enzastaurin was added for a minimum of 3.5 hours of culture and SU11274 for at least one hour before preparation of lysates. Cell lysates: Media were removed from confluent monolayers of cells immediately before addition of lysis buffer (1 μg/ml aprotinin, 1 μg/ml leupeptin, 200 μM sodium vanadate (NaVO4), 0.1% NP-40, […], 20 mM EDTA, 1 mM PMSF in 50 mM Tris-HCl (pH 7.5). Cells were harvested and sonicated in lysis buffer. After 15 minutes on ice, lysates were microcentrifuged for 20 minutes. Supernatants were removed and protein concentrations therein determined spectrophotometrically with protein detection reagent. Western blots: 10-30 μg of lysate were mixed with loading buffer and boiled before loading into 7.5% Tris-HCl pre-cast SDS-PAGE gels for electrophoresis in SDS-glycine buffer for 90 minutes. Separated proteins were transferred from the gel to Hybond ECL nitrocellulose membrane using a Trans-Blot SD semi-dry transfer cell apparatus. The transfer ran at 20 volts for 35-40 minutes. Nitrocellulose membranes were washed in 1×Tris Buffered Saline-0.1% Tween 20 (TBS-T) then blocked with 5% BSA or 5% milk in TBS-T on rotator for one hour at room temperature or overnight at 4° C. 0.2% Sodium Azide (NaN3) was added to all blocking and primary antibody solutions. Nitrocellulose membranes were probed with 1:1000 or 1:2000 primary antibody.
In general terms: A western blot detects proteins with antibodies after separation by electrophoresis.

In assay [2] the test system is kinase phosphorylation in H1975 cells. The assay is described as above. The method, then:
as §2

“Also recorded” adds a separate entry of the source.

For the molecule `Cn1cc(C2=C(c3cn(C4CCN(Cc5ccccn5)CC4)c4ccccc34)C(=O)NC2=O)c2ccccc21` [enzastaurin], in the assay on Calu3 cells, the “cell survival / cell viability / sensitivity” value is given as “greatest sensitivity; also recorded: significantly decreases the numbers of NSCLC cells”. Also, the “effect on cell number (3-factor ANOVA)” value in the assay with Calu3 cells (listed as Enzo 150) is “significant effect”. In the assay on H1975 cells (listed as Enza150), the “effect on cell number (3-factor ANOVA)” value is reported as “not significantly effective”. Moreover, in the assay with H1975 cells (listed as Enzo150), the “effect on cell number (3-factor ANOVA)” value was “neither SU nor Enzo150 alone has a significant effect”. In assay [1] (Calu3), the c-met phosphorylation result is “decreased”, the erbB3 phosphorylation result is listed as “decreased”, the “phosphorylation of PKC family members (pan-antibody against common phosphorylation sites)” value is on record as “does not inhibit phosphorylation of all PKC family members” and the sic phosphorylation result is on record as “substantially decreased”. Further, in assay [1] (Calu3), the “Akt (ser473) phosphorylation” value is reported as “only minimal effects” and the “EGFR (Y1068) phosphorylation” value is on record as “only minimal effects”. Also, the PKCαβ phosphorylation result in assay [1] (Calu3, 3.5 hours in culture, serum-free medium) was “dose dependent inhibition; also recorded: inhibited”. Moreover, in assay [2] (H1975), the sic phosphorylation result is “only a moderate effect”. Also, the PKCαβ phosphorylation entry in assay [2] (H1975, short-term incubation, serum-free medium) was “inhibited”.

Take `Cc1[nH]c(/C=C2\C(=O)Nc3ccc(S(=O)(=O)N(C)c4cccc(Cl)c4)cc32)c(C)c1C(=O)N1CCN(C)CC1` [SU11274]: in the assay on Calu3 cells, the “cell survival / cell viability / sensitivity” value is on record as “significantly decreases the numbers of NSCLC cells”. Further, the “effect on cell number (3-factor ANOVA)” value with Calu3 cells (listed as SU) is given as “significant effect”. For the same molecule, the “effect on cell number (3-factor ANOVA)” value with H1975 cells (listed as SU) is reported as “neither SU nor Enzo150 alone has a significant effect; also recorded: not significantly effective”. In assay [1] (Calu3), the “Akt (ser473) phosphorylation” value is “only minimal effects” and the “EGFR (Y1068) phosphorylation” value is listed as “only minimal effects”.
